Source: paper PMC8041284, “Tunable Methacrylamides for Covalent Ligand Directed Release Chemistry” (Journal of the American Chemical Society, 2021)
Where two headings read alike, the source gives them in different places. Where a SMILES comes first, the peptide text is derived from it. [ ]: non-standard residue; d: D form.

Target: BTK (Homo sapiens, UniProt Q06187)
Assay: biochemical
[1] = read-out: BTK inhibition (%), 0.75 uM BTK, […] probe 3l, 15 min preincubation

Chain of BTK (Q06187 402-655 limits assumed): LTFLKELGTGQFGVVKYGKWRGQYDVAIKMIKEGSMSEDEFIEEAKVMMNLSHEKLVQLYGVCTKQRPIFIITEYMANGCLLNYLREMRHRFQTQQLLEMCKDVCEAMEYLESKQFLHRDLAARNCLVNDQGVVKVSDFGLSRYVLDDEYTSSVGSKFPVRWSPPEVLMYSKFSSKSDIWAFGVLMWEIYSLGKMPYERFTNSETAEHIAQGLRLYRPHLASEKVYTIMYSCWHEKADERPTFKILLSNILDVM

Structure (SMILES)	inhibition at 10 µM [1] [%]	inhibition at 10 µM (read-out: BTK inhibition (%)) [%]
O=C(O)Cc1ccc2c(c1)C(=O)c1ccccc1CO2 [PCM-0216047]	-5.5	–
Cc1cc(C(=O)Nc2nc3cccc(Cl)c3n2[C@@H]2CCCCN(C(=O)/C=C/CN(C)C)C2)ccn1 [PCM-0215804]	73.8	–
O=C[C@H](O)[C@@H](O)[C@H](O)[C@H](O)COP(=O)(O)O [PCM-0216185]	13.6	–
CCc1cncnc1N1CCN(Cc2nc3ccc(C(F)(F)F)cc3[nH]2)CC1 [PCM-0065022]	-22.8	–
COc1ccc(-c2cc(=O)c3c(O)cc(O)cc3o2)cc1 [PCM-0216090]	16.6	–
CN1c2ccccc2C(NCCCCCCC(=O)O)c2ccc(Cl)cc2S1(=O)=O (centres unmarked) [PCM-0095097]	–	-13.2
COc1cc2ncc(-c3ccccc3)nc2cc1OC [PCM-0095612]	-13.8	–
COc1cc2nc(N3CCN(C(=O)C4COc5ccccc5O4)CC3)nc(N)c2cc1OC (centres unmarked) [PCM-0065300]	-11.7	–
CN([C@@H](Cc1ccc(OS(=O)(=O)c2cccc3cnccc23)cc1)C(=O)N1CCN(c2ccccc2)CC1)S(=O)(=O)c1cccc2cnccc12 [PCM-0215309]	2.1	–
O=C(Nc1ccc([N+](=O)[O-])cc1O)Nc1ccccc1Br [PCM-0215392]	73.1	–
NC(=O)c1ccc(I)c([N+](=O)[O-])c1 [PCM-0095053]	-1.4	–
O=C(CSc1nc2c(c(=O)n1-c1ccccc1)SCC2)Nc1ccc(-c2ccccc2)cn1 [PCM-0215278]	-8.5	–
COc1cc(OC)c(C(=O)CCCN2CCCC2)c(OC)c1 [PCM-0085999]	-12.5	–
COC[C@H](NC(=O)c1cnc(C)s1)C(=O)N[C@@H](COC)C(=O)N[C@@H](Cc1ccccc1)C(=O)[C@@]1(C)CO1 [PCM-0095574]	-4.6	–
O=C(Nc1ccncc1)c1cc([N+](=O)[O-])ccc1Cl [PCM-0064887]	10.9	–
COc1cc(O)c2c(=O)c(O[C@@H]3O[C@H](CO)[C@@H](O)[C@H](O)[C@H]3O)c(-c3ccc(O[C@@H]4O[C@H](CO)[C@@H](O)[C@H](O)[C@H]4O)cc3)oc2c1 [PCM-0216473]	7.7	–
CCN1C[C@]2(COC)CC[C@H](OC)[C@]34C1[C@H](C[C@H]23)[C@@]1(O)C[C@H](OC)[C@H]2C[C@@H]4[C@@H]1[C@H]2O [PCM-0216478]	–	10.8
C[C@H]1CN(C[C@H](Cc2ccccc2)C(=O)NCC(=O)O)CC[C@@]1(C)c1cccc(O)c1 [PCM-0216566]	-13.1	–
CC/C(=C(\c1ccccc1)c1ccc(OCCN(C)C)cc1)c1ccccc1 [PCM-0064738]	7.6	–
C/C=C1\C(=O)C[C@H]2[C@@H]3CCC4=CC(=O)CC[C@]4(C)[C@H]3CC[C@]12C [PCM-0216120]	-1.6	–
O=C1C2CCN(CC2)C1(CO)CO [PCM-0215683]	0.8	–
CC(/C=C/C=C(\C)C(=O)O[C@@H]1O[C@H](CO)[C@@H](O)[C@H](O)[C@H]1O)=C\C=C\C=C(C)\C=C\C=C(/C)C(=O)O[C@@H]1O[C@H](CO[C@@H]2O[C@H](CO)[C@@H](O)[C@H](O)[C@H]2O)[C@@H](O)[C@H](O)[C@H]1O [PCM-0216484]	16.2	–
CN(C)CC/C=C1/c2ccccc2Sc2ccc(Cl)cc21 [PCM-0095101]	10.9	–
Cc1ccc(CNc2ncnc3ccc(-c4ccc(CO)o4)cc23)o1 [PCM-0215296]	6.9	–
C#Cc1cccc(Nc2ncnc3cc(OC)c(OCCCCCCC(=O)NO)cc23)c1 [PCM-0095078]	87.6	–

Structure (SMILES)	inhibition at 10 µM [1] [%]	inhibition at 10 µM (read-out: BTK inhibition (%)) [%]
COc1c(C)c(O)cc2[o+]c(-c3ccccc3)ccc12 [PCM-0216513]	38.6	–
COc1ccc(-c2cc(=O)c3c(O)cc(O[C@@H]4O[C@H](CO[C@@H]5O[C@@H](C)[C@H](O)[C@@H](O)[C@H]5O)[C@@H](O)[C@H](O)[C@H]4O)cc3o2)cc1O [PCM-0087491]	-5.1	–
CO[C@@H]1[C@@H](OC(N)=O)[C@@H](O)[C@H](Oc2ccc3c(O)c(NC(=O)c4ccc(O)c(CC=C(C)C)c4)c(=O)oc3c2C)OC1(C)C [PCM-0086469]	7	–
CN1CCN(c2cccc(Nc3nc4c(-c5ccc(S(C)(=O)=O)cc5)cccn4n3)c2)CC1 [PCM-0095404]	41.4	–
S=C(NCc1ccc2c(c1)OCO2)N1CCN(c2ncnc3c2oc2ccccc23)CC1 [PCM-0094997]	28.3	–
O=c1cc(-c2ccccc2)oc2c1ccc1ccccc12 [PCM-0216134]	-0.8	–
CCN1CCN(Cc2ccc(C(=O)Nc3ccc(C)c(Oc4ccc5c(c4)CC(=O)N5)c3)cc2C(F)(F)F)CC1 [PCM-0213332]	20.7	–
C[C@@H]1O[C@@H](OC[C@H]2O[C@@H](Oc3cc(O)c4c(c3)O[C@H](c3ccc(O)c(O)c3)CC4=O)[C@H](O)[C@@H](O)[C@@H]2O)[C@H](O)[C@H](O)[C@H]1O [PCM-0216467]	10	–
NC12CC3CC(CC(C3)C1)C2 [PCM-0064405]	-14.8	–
CNCc1cc(-c2ccccc2F)n(S(=O)(=O)c2cccnc2)c1 [PCM-0095606]	17	–
Clc1ccc2nsnc2c1NC1=NCCN1 [PCM-0065635]	14.8	–
CC(C)C[C@@H]1NC(=O)[C@@H](C(C)C)NC(=O)[C@@H]2CCCN2C(=O)[C@@H](CC(=O)O)NC(=O)[C@@H](Cc2c[nH]c3ccccc23)NC1=O [PCM-0215512] (cyclo(L[dW][dD]P[dV]))	-5.4	–
COc1cc(-c2ncn(/C=C\C(=O)OC(C)C)n2)cc(C(F)(F)F)c1 [PCM-0215247]	-11.6	–
CC(=O)SCC(Cc1ccccc1)C(=O)NCC(=O)OCc1ccccc1 (centres unmarked) [PCM-0086128]	3.1	–
CC(C)CN(CC(=O)N1CCN(CC(OCc2ccc3ccccc3c2)c2ccc(Cl)cc2Cl)CC1)CC(C)C (centres unmarked) [PCM-0215889]	93.4	–
Cc1cc(SCc2sc(-c3ccc(C(F)(F)F)cc3)nc2C)ccc1OCC(=O)O [PCM-0215226]	23.9	–
CC1(C)CCC(C)(C)c2cc(NC(=O)c3ccc(C(=O)O)cc3)ccc21 [PCM-0214790]	-18.7	–
O=C(Nc1ccc2c(O)cc(S(=O)(=O)O)cc2c1)Nc1ccc2c(O)cc(S(=O)(=O)O)cc2c1 [PCM-0216169]	29.3	–
CCOC(=O)[C@H]1O[C@@H]1C(=O)N[C@@H](CC(C)C)C(=O)NCCC(C)C [PCM-0215286]	14.7	–
O=C(Cc1ccc(-c2ccc(OCCN3CCOCC3)cc2)cn1)NCc1ccccc1 [PCM-0095410]	-2.8	–
Cc1c(C(=O)NN2CCCCC2)nn(-c2ccc(Cl)cc2Cl)c1-c1ccc(Cl)cc1 [PCM-0095470]	42	–
CC1=CC[C@@H](C(C)(C)O)CC1 [PCM-0216214]	-20.8	–
COC(=O)Nc1nc2ccc([S+]([O-])c3ccccc3)cc2[nH]1 (centres unmarked) [PCM-0086213]	17.9	–
O=C[C@H](O)[C@@H](O)[C@H](O)[C@H](O)CO[C@H]1O[C@H](CO[C@H]2O[C@H](CO)[C@H](O)[C@H](O)[C@H]2O)[C@H](O)[C@H](O)[C@H]1O [PCM-0216378]	3.9	–
Nc1ccc(Oc2ccc(-c3ccc(Oc4ccc(N)cc4)cc3)cc2)cc1 [PCM-0216586]	-7.7	–

Structure (SMILES)	inhibition at 10 µM [1] [%]	inhibition at 10 µM (read-out: BTK inhibition (%)) [%]
COC(=O)CC[C@@H](C)[C@H]1CC[C@H]2[C@@H]3[C@H](O)C[C@@H]4C[C@H](O)CC[C@]4(C)[C@H]3C[C@H](O)[C@]12C [PCM-0215088]	-4.7	–
O=C(Nc1cnn2ccc(N3CCC[C@@H]3c3cc(F)ccc3F)nc12)N1CC[C@H](O)C1 [PCM-0215701]	-9	–
CCCCN(Cc1ccc(C(=O)NO)cc1)C(=O)Nc1ccccc1 [PCM-0215294]	23.9	–
COC(=O)c1ccc2c(c1)[nH]c1ncnc(NCCCN3CCCCC3)c12 [PCM-0215451]	-0.8	–
Nc1ccn([C@@H]2O[C@H](CO)[C@@H](O)[C@H]2O)c(=O)n1 [PCM-0095215]	-15.6	–
CC1CCC(C(=O)N(c2cc(C#CC(C)(C)C)sc2C(=O)O)C2CCC(O)CC2)CC1 (centres unmarked) [PCM-0095160]	2.3	–
CCN1CCN(Cc2ccc(-c3cc4c(N[C@H](C)c5ccccc5)ncnc4[nH]3)cc2)CC1 [PCM-0214628]	41.4	–
Cc1cc2c(F)c(Oc3ncnn4cc(OC[C@@H](C)OC(=O)[C@H](C)N)c(C)c34)ccc2[nH]1 [PCM-0094946]	-44.8	–
O=C(NC1CC1)c1cc(-c2cccs2)on1 [PCM-0215520]	-2.3	–
CC(=O)N=c1sc(S(N)(=O)=O)nn1C [PCM-0095591]	-7.8	–
COc1c(O)cc2c(c1O)C(=O)c1c(cc(C)c(O)c1OC)C2=O [PCM-0216431]	28.6	–
CC(C)c1c(-c2ccccc2)nc2c(C#N)c[nH]n2c1=O [PCM-0215735]	24.7	–
COc1ccc2c(c1)/C(=C/c1cnc[nH]1)C(=O)N2 [PCM-0101915]	47.6	–
O=C(O)C(=O)CBr [PCM-0216160]	6.2	–
Nc1cccc(S(=O)(=O)N2CCCN(S(=O)(=O)c3ccc4c(c3)OCCO4)CC2)c1 [PCM-0215556]	-2.8	–
OCc1ccc(-c2ccc(-c3ccc(CO)s3)o2)s1 [PCM-0095348]	1.6	–
CS(=O)(=O)N1CCN(Cc2cc3nc(-c4cccc5[nH]ncc45)nc(N4CCOCC4)c3s2)CC1 [PCM-0094994]	-15.9	–
CN1CCN(CCCN2c3ccccc3Sc3ccc(C(F)(F)F)cc32)CC1 [PCM-0064852]	-4.7	–
Cc1ccccc1-n1c(CF)nc2ccc(N)cc2c1=O [PCM-0214908]	–	2.3
CO[C@@H]1[C@@H](O[C@@H]2O[C@H](C)[C@@H](O[C@H]3C[C@@](C)(O)[C@@H](O)[C@H](C)O3)[C@H](N(C)C)[C@H]2O)[C@@H](CC=O)C[C@@H](C)[C@@H](O)/C=C/C=C/C[C@@H](C)OC(=O)C[C@H]1O [PCM-0214884]	6.2	–
C=CCSC[C@H](N)C(=O)O [PCM-0215956]	3.4	–
O=C(/C=C/c1ccc(O)c(O)c1/C=C/c1ccc(O)c(O)c1)O[C@H](Cc1ccc(O)c(O)c1)C(=O)O [PCM-0216354]	30.9	–
Cc1cc(=O)n(-c2ccccc2)n1C [PCM-0085809]	13.8	–
O=C(CCN1CCN(C(=O)OCc2cc(Cl)cc(Cl)c2)CC1)c1ccc2[nH]c(=O)oc2c1 [PCM-0215647]	-4.6	–
